Reference: patent publication US12686699B2, “Crystalline forms of squalamine” (priority 2020, dated 2026)
Entries after “also recorded” stand apart in the source; their conditions may differ. Where two headings read alike, the source gives them in different places.

What was measured:
Assay type in all cases: physicochemical
[1] = Solubility in biorelevant media (shake-flask)
Experimental: The experiments were performed in triplicate. Approximately 30 mg of API were weighed in the 8 mL glass vials and an aliquot of media was added (see Table 14 for details). […] Upon completion of the equilibration time, the solids were separated from the liquid phases by centrifugation. The mother liquors were filtered using […] PTFE filters and injected at the HPLC to determine the API concentration in solution. The pH was recorded after 3 hours (1 hour for FaSSGF). The recovered ambient-dried solids were analyzed by HT-XRPD.

[2] = Intrinsic dissolution rate determination in FaSSGF; settings: for IDR: FaSSGF pH 1.6, 37° C., interval 3-30 min (Form A1), 10-45 min (Form C); for API concentration in solution: FaSSGF, 37° C.
Experimental: The intrinsic dissolution rate of Forms A1 and C was determined in FaSSGF. […] The pressure applied was approximately 40 bar for 2 minutes. The two tablets were placed in 30 mL vials and afterwards the FaSSGF solution pre-warmed at 37° C. […] After FaSSGF addition, stirring was started. The medium (20 mL) was added to vessels containing tablets of Forms A1 and C. The tablets were kept at 37° C. under continuous stirring. […] In the plot shown in FIG. 14, the % concentration of the API in solution is plotted against the time. The dissolution rate (Table 16) was calculated in the interval between 3 and 30 minutes for the experiment started with Form A1, and in the range 10-45 minutes for the experiment started with Form C.

[3] = Dynamic Vapor Sorption (DVS) measurement; settings: for hygroscopic behavior: 40 to 95% RH
[4] = Variable Humidity XRPD (VH-XRPD); settings: 30° C., RH profile 40→87→0→60% (Form A1), 40→85→0→60% (Form C)
Experimental: The powder data were collected on D8 Advance diffractometer using Cu Kα1 radiation (1.54056 Å) with germanium monochromator at 30° C. using the SYCOS H-HOT hot humid chamber produced by Ansyco GmbH. The data were collected in the Bragg-Brentano geometry (locked coupled) from 8 to 35° 2θ on the flat sample holder (without rotation) on solid state LynxEye detector with 0.018° per step with 1 sec/step scan speed. After reaching demanded humidity the sample was relaxed for 5 minutes before measurement. The sample was optionally measured with 2 seconds per step and in the last measurement at RH 0% the relaxation time was elongated to 30 min.
Variable Humidity XRPD (VH-XRPD) measurements were performed on Forms A1 and C to investigate the in-situ phase changes induced by exposure to variable RH levels. Diffractograms of Form A1 were collected at 30° C. with a RH profile of 40→87→0→60% (FIG. 2). Initially, the pattern of Form A1 was distinguished at 40% RH. By increasing the RH level up to 87%, no changes in the XRPD pattern were detected. Furthermore, no changes were observed by lowering the RH from 87% down to 20%.

[5] = Physical stability test of solid forms
Experimental: Solid samples of Forms A1, B1 and C were incubated at three different conditions to test their physical stability: 80° C., closed vial, 24 hours; 60° C./29% RH, open vial, 48 hours; and 40° C./75% RH, open vial, 48 hours. The solids recovered after the stability studies were analyzed by HR-XRPD, TGMS and DSC.

[6] = Exposure to accelerated aging conditions (AAC); settings: 40° C./75% RH for 2 days
From the text: The polymorphic behavior of squalamine phosphate (ENT-01) and the physico-chemical properties of two hydrated phases were investigated. A squalamine tetrahydrate, designated Form A1, was identified. The squalamine polymorphism assessment and hydrate screen allowed identification of several squalamine crystalline phases. Among these phases, four squalamine hydrates (Forms B1, B2, C, D) and three mixed squalamine hydrates/solvates (Forms A2, E, F) were identified. All phases converted to squalamine Form A1 upon exposure to accelerated aging conditions (ACC) (2 days at 40° C./75% RH).
In the vacuum-dried solids, a novel pattern very similar to Form A1 but with shifted peaks was identified. This phase was designated Form A2 (see Table 2) and characterized by HT-XRPD. […] Form A2 was identified in several vacuum-dried solids recovered from the hydrate screen experiments.

[7] = FaSSGF (pH 1.6), 37° C., 1 hour
[8] = FaSSIF (pH 6.5), 37° C., 3 hours
[9] = desorption, between 5 and 0% RH
[10] = desorption, between 25 and 5% RH
[11] = first sorption cycle, between 45 and 95% RH
[12] = last sorption cycle, between 25 and 45% RH
[13] = after 40° C./75% RH, open vial, 48 h (TGMS)
[14] = after 60° C./29% RH, open vial, 48 h (TGMS)
[15] = after 80° C., closed vial, 24 h (TGMS)

Row | Structure (SMILES) | SOLUBILITY [1, 7] | SOLUBILITY [1, 8] | IDR [2] | API concentration in solution ([2]; after 45 minutes) | API concentration in solution ([2]; after 60 minutes) | hygroscopic behavior [3] | change in mass [3, 9] | change in mass [3, 10] | change in mass (water vapor uptake) [3, 11] | change in mass ([3]; last sorption cycle, 0-25% RH) | change in mass (water vapor uptake) [3, 12] | physical stability under variable RH levels [4] | Solid Phase Composition ([5]; 40° C./75% RH, open vial, 48 h) | Solid Phase Composition ([5]; 60° C./29% RH, open vial, 48 h) | Solid Phase Composition ([5]; 80° C., closed vial, 24 h) | Mass loss [5, 13] | Mass loss [5, 14] | Mass loss [5, 15] | further results
1 | CC(C)[C@@H](CC[C@@H](C)[C@H]1CC[C@H]2[C@@H]3[C@H](O)C[C@H]4C[C@@H](NCCCNCCCCN)CC[C@]4(C)[C@H]3CC[C@]12C)OS(=O)(=O)O.O=P(O)(O)O [Form A1, squalamine phosphate] | ~ 9 mg/mL | practically insoluble | 0.049 mg/min/cm^2 | ~20% | above 30% | slightly hygroscopic | 5.3% | 1.7% | 2.1% | 7% | 0.6% | stable in the range 40→87→20% RH; also recorded: started to release water at RH levels below 20% | physically stable | physically stable | physically stable | 9.2% | 8.5% | 9.1% | SOLUBILITY ([1]; 37 °C, pH 1.6, fassgf or other biorelevant, thermodynamic from solid, FaSSGF (pH 1.6), 1 hour, read-out: SOLUBILITY): 9 mg/mL; SOLUBILITY ([1]; 37 °C, pH 5.1, fessif, thermodynamic from solid, FeSSIF (initial medium pH 5.1), 3 hours, read-out: SOLUBILITY): ~1 mg/mL; SOLUBILITY ([1]; 37 °C, pH 6.5, fassif, thermodynamic from solid, FaSSIF (pH 6.5), 3 hours, read-out: SOLUBILITY): < 0.1 mg/mL; SOLUBILITY ([1]; FaSSGF (pH 1.6), 37° C., 1 hour, listed as A1): 8.9 mg/mL; SOLUBILITY ([1]; FeSSIF (initial medium pH 5.1), 37° C., 3 hours, listed as Al): 0.8 mg/mL; change in mass (water absorbed) ([3]; between 35 to 65% RH): 0.7%; change in mass ([3]; desorption, 95-55% RH): 0.9%; change in mass ([3]; desorption, between 45 and 25% RH): 0.6%; change in mass ([3]; desorption, between 55 and 45% RH): 1%
2 | CC(C)[C@@H](CC[C@@H](C)[C@H]1CC[C@H]2[C@@H]3[C@H](O)C[C@H]4C[C@@H](NCCCNCCCCN)CC[C@]4(C)[C@H]3CC[C@]12C)OS(=O)(=O)O.O=P(O)(O)O [Form B1, squalamine phosphate] |  |  |  |  |  |  |  |  |  |  |  |  | converted to Form A1 | converted to Form A1; also recorded: converting to squalamine Form A1 | physically stable | 8.9% | 9.0% | 1.8% | 
3 | CC(C)[C@@H](CC[C@@H](C)[C@H]1CC[C@H]2[C@@H]3[C@H](O)C[C@H]4C[C@@H](NCCCNCCCCN)CC[C@]4(C)[C@H]3CC[C@]12C)OS(=O)(=O)O.O=P(O)(O)O [Form C, squalamine phosphate] | 16.9 mg/mL | practically insoluble | 0.014 mg/min/cm^2 | below 10% | above 20% | slightly hygroscopic | 6% | 7.3% | 3.1% | 8.1% | 1.4% | physically stable in the range 40→85→40% RH | physically stable | converted to Form A1 | converted to Form A1 | 12.6% | 8.7% | 8.8% | SOLUBILITY ([1]; FaSSIF (pH 6.5), 37° C., 3 hours, listed as C): <0.1 mg/mL; SOLUBILITY ([1]; FeSSIF (initial medium pH 5.1), 37° C., 3 hours): ~1 mg/mL; SOLUBILITY ([1]; FeSSIF (initial medium pH 5.1), 37° C., 3 hours, listed as C): 0.9 mg/mL
4 | CC(C)[C@@H](CC[C@@H](C)[C@H]1CCC2C3C(CC[C@@]21C)[C@@]1(C)CC[C@H](NCCCNCCCCN)C[C@@H]1C[C@H]3O)OS(=O)(=O)O.O=P(O)(O)O (stereo partly shown) [Form D, squalamine phosphate] |  |  |  |  |  |  |  |  |  |  |  |  |  |  |  |  |  |  | physical stability upon exposure to AAC [6]: physically unstable
